According to patent publication US8802686B2, “Sulfone-substituted anilinopyrimidine derivatives as CDK inhibitors, the production thereof, and use as a medicine” (Bayer Intellectual Property GmbH, priority 2008, dated 2014):
Where two headings read alike, the source gives them in different places.

What was measured:
CDK1/CycB = CDK1/CycB (Homo sapiens (Human), UniProt P06493); test: CDK1/CycB kinase assay (Assay 1); type: biochemical; conditions: read-out: CDK1/CycB (Assay 1) Concentration of the half-maximal inhibition of the enzyme activity, IC50
Method: CDK1/CycB (200 ng/measuring point) was incubated for 10 min at 22° C. in the presence of different concentrations of test substances (0 and within the range 0.001-10 μM) in assay buffer [50 mM Tris/HCl pH 8.0; 10 mM MgCl2; 0.1 mM Na ortho-vanadate; 1.0 mM dithiothreitol; 0.5 μM adenosine trisphosphate (ATP); 10 μg/measuring point histone IIIS; 0.2 μCi/measuring point ^33P-gamma ATP; 0.05% NP40; 1.25% dimethyl sulphoxide]. The reaction was stopped by adding EDTA solution (250 mM; pH 8.0; 15 μl/measuring point).
From each reaction mixture, 15 μl were applied to P30 filter strips (Wallac), and unincorporated ^33P-ATP was removed by washing the filter strips three times, for 10 min in each case, in 0.5% phosphoric acid. After drying the filter strips for 1 hour at 70°, the filter strips were covered with scintillator strips (MeltiLex™ A, Wallac) and stoved for 1 hour at 90° C. The amount of incorporated ^33P (substrate phosphorylation) was determined by scintillation measurement in a gamma-radiation measuring instrument (Wallac). […] The IC50 values were determined by means of a 4-parameter fit using the company's own software.

CDK2/CycE = CDK2/CycE (Homo sapiens (Human), UniProt P24941); test: CDK2/CycE kinase assay (Assay 2); type: biochemical; conditions: read-out: CDK2/CycE (Assay 2) Concentration of the half-maximal inhibition of the enzyme activity, IC50
Method: Recombinant CDK2 and CycE-GST fusion proteins, purified from baculovirus-infected insect cells (Sf9), were purchased from ProQinase GmbH, Freiburg. Histone IIIS, which was used as kinase substrate, was purchased from Sigma.
CDK2/CycE (50 mg/measuring point) was incubated for 10 min at 22° C. in the presence of different concentrations of test substances (0 μM, and within the range 0.001-10 μM) in assay buffer [50 mM Tris/HCl pH 8.0; 10 mM MgCl2; 0.1 mM Na ortho-vanadate; 1.0 mM dithiothreitol; 0.5 μM adenosine trisphosphate (ATP); 10 μg/measuring point histone IIIS; 0.2 μCi/measuring point ^33P-gamma ATP; 0.05% NP40; 1.25% dimethyl sulphoxide]. The reaction was stopped by adding EDTA solution (250 mM; pH 8.0; 15 μl/measuring point).
(§2) From each reaction mixture, 15 μl were applied to P30 filter strips (Wallac), and unincorporated ^33P-ATP was removed by washing the filter strips three times, for 10 min in each case, in 0.5% phosphoric acid. After drying the filter strips for 1 hour at 70° C., the filter strips were covered with scintillator strips (MeltiLex™ A, Wallac) and stoved for 1 hour at 90° C. The amount of incorporated ^33P (substrate phosphorylation) was determined by scintillation measurement in a gamma-radiation measuring instrument (Wallac). […] The IC50 values were determined by means of a 4-parameter fit using the company's own software.

[1] = system: MCF7, hormone-independent human breast carcinoma cells; test: Proliferation assay (Assay 5), MCF7; type: cell-based; conditions: read-out: Concentration of the half-maximal inhibition of the cell proliferation, IC50
From the text: (§1) Cultivated human tumour cells (MCF7, hormone-independent human breast carcinoma cells, acquired from ATCC HTB22; NCI-H460, human non-small-cell lung carcinoma cells, ATCC HTB-177; DU 145, hormone-independent human prostrate carcinoma cells, ATCC HTB-81; HeLa-MaTu, human cervix carcinoma cells, EPO-GmbH, Berlin; HeLa-MaTu-MDR, multiple drug-resistant human cervix carcinoma cells, EPO-GmbH, Berlin; Caco-2, human colon carcinoma cells, ATCC HTB-37; B16F10, murine melanoma cell, ATCC CRL-6475) were plated out at a density of ca. 1000-5000 cells/measuring point, depending on the growth rate of the particular cells, in a 96-well multititre plate in 200 μl of the corresponding growth medium. After 24 hours, the cells of one plate (zero-point plate) were stained with crystal violet (see below), whereas the medium of the other plates was replaced with fresh culture medium (200 μl), to which the test substances had been added at different concentrations (0 μM, and in the range 0.003-3 μM; the final concentration of the solvent dimethyl sulphoxide was 0.5%). The cells were incubated for 4 days in the presence of the test substances. Cell proliferation was determined by staining the cells with crystal violet: the cells were fixed by adding 20 μl/measuring point of an 11% glutaraldehyde solution for 15 min at room temperature. After washing the fixed cells with water three times, the plates were dried at room temperature. The cells were stained by adding 100 μl/measuring point of a 0.1% crystal violet solution (pH adjusted to pH 3 by adding acetic acid). After washing the stained cells with water three times, the plates were dried at room temperature. The dye was dissolved by adding 100 μl/measuring point of a 10% acetic acid solution. The extinction was determined photometrically at a wavelength of 595 nm. […] The IC50 values were determined by means of a 4-parameter fit using the company's own software.

[2] = system: NCI-H460, human non-small-cell lung carcinoma cells; test: Proliferation assay (Assay 5), NCI-H460; type: cell-based; conditions: 96 h, NCI-H460, 4 days, read-out: Concentration of the half-maximal inhibition of the cell proliferation, IC50
From the text: as §1

[3] = molecular target: VEGF receptor tyrosine kinase-2 (VEGF-R2) (Homo sapiens (Human), UniProt P35968); test: VEGF receptor-2 kinase assay (Assay 4); type: biochemical; conditions: read-out: VEGF-R2 (Assay 4) Concentration of the half-maximal inhibition of the enzyme activity, IC50
Method: Recombinant VEGF receptor tyrosine kinase-2 was purified as GST fusion protein from baculovirus-infected insect cells (Sf9). Poly-(Glu4Tyr), which was used as kinase substrate, was purchased from Sigma.
VEGF receptor tyrosine kinase (90 ng/measuring point) was incubated for 10 min at 22° C. in the presence of different concentrations of test substances (0 μM, and within the range 0.001-10 μM) in 30 μl of assay buffer [40 mM Tris/HCl pH 5.5; 10 mM MgCl2; 1 mM MnCl2; 3 μM Na ortho-vanadate; 1.0 mM dithiothreitol; 8 μM adenosine trisphosphate (ATP); 0.96 μg/measuring point poly-(Glu4Tyr); 0.2 μCi/measuring point ^33P-gamma ATP; 1.4% dimethyl sulphoxide]. The reaction was stopped by adding EDTA solution (250 mM; pH 8.0; 15 μl/measuring point).
as §2

[4] = system: DU 145, hormone-independent human prostrate carcinoma cells; test: Proliferation assay (Assay 5), DU145; type: cell-based; conditions: DU-145, 96 h, DU145, 4 days, read-out: Concentration of the half-maximal inhibition of the cell proliferation, IC50
From the text: as §1

[5] = system: Caco-2, human colon carcinoma cells; test: Proliferation assay (Assay 5), Caco-2; type: cell-based; conditions: 96 h, Caco-2, 4 days, read-out: Concentration of the half-maximal inhibition of the cell proliferation, IC50
From the text: as §1

[6] = system: HeLa-MaTu-ADR (HeLa-MaTu-MDR, multiple drug-resistant human cervix carcinoma cells); test: Proliferation assay (Assay 5), HeLa-MaTu-ADR; type: cell-based; conditions: 96 h, HeLa-MaTu-ADR, 4 days, read-out: Concentration of the half-maximal inhibition of the cell proliferation, IC50
From the text: as §1

[7] = system: B16F10, murine melanoma cell; test: Proliferation assay (Assay 5), B16F10; type: cell-based; conditions: Mus musculus, B16-F10, 96 h; B16F10, 4 days; read-out: Concentration of the half-maximal inhibition of the cell proliferation, IC50
From the text: as §1

CDK4/CycD1 = CDK4/CycD1 (Homo sapiens (Human), UniProt P11802); test: CDK4/CycD kinase assay (Assay 3); type: biochemical; conditions: read-out: CDK4/CycD (Assay 3) Concentration of the half-maximal inhibition of the enzyme activity, IC50
Method: Recombinant CDK4 and CycD1-GST fusion proteins, purified from baculovirus-infected insect cells (Sf9), were purchased from ProQinase GmbH, Freiburg. CDK4/CycD1 (250 ng/measuring point) was incubated for 3 hours at 22° C. in the presence of different concentrations of test substances (0 μM, and within the range 0.001-10 μM) in 31 μl of assay buffer [50 mM Hepes pH 7.0; 2.5 mM MnCl; 0.05 mM Na ortho-vanadate; 1.0 mM dithiothreitol; 0.25 μM adenosine trisphosphate (ATP); 0.5 μM biotinylated myelin basic protein (bio-MPB, GE Healthcare); 0.05 μCi/measuring point ^33P-gamma ATP; 0.005% NP40; 0.025% bovine serum albumin; 3% dimethyl sulphoxide]. The reaction was stopped by adding 50 μl of stop-mix [100 μM ATP; 10 mM EDTA pH 8.0; 0.2% Triton X100; 0.125 mg of streptavidin-SPA Beads (GE Healthcare)]. After incubation for 10 min at room temperature, the SPA beads were pelleted by centrifugation (10 min; 1500 g). The amount of incorporated ^33P (substrate phosphorylation) was determined by scintillation measurement in a beta-radiation measuring instrument (Microbeta, Perkin Elmer).

[8] = Permeability assay (Assay 6), Caco-2 monolayer; type: in vitro ADME; conditions: human
Method: The Caco-2 monolayer is a barrier between 2 compartments. The cells here behave similarly to the small intestine cells. Active ingredients can be transported either paracellularly or transcellularly. Here, the transport takes place in most cases from apical (luminal) to basolateral (serosal). In the case of p-glycoprotein substrates, back-transport from basolateral to apical is also usually observed.
Experimental procedure: The permeability test is carried out both from apical to basolateral and also from basolateral to apical. For this, two filters are used per substance; incubation takes place over 90 min at 37° C. in a water bath. […] As reference substances, (i) PEG 4000 are used as hydrophilic marker. On account of its high molecular weight, it is unable to permeate into the cell membrane or into the pores of the tight junctions. PEG 4000 is therefore a marker of the intactness of the cell monolayer and the narrowness of the tight junctions. PEG 4000 is not absorbed in humans. (ii) Clonidine is known as completely absorbed substances in people (100%). They serve as markers for very highly permeable substances with Papp values above 100 nm/s. (iii) Digoxin is a known Pgp substrate. […] In the reverse experiment (basolateral to apical), the Papp values should be higher by a factor of about 10 as a result of the active directional transport into the apical compartment.
The permeation coefficient Papp is used to estimate the absorption in people according to the following scheme: […]

Chain of CDK1/CycB (P06493 whole entry): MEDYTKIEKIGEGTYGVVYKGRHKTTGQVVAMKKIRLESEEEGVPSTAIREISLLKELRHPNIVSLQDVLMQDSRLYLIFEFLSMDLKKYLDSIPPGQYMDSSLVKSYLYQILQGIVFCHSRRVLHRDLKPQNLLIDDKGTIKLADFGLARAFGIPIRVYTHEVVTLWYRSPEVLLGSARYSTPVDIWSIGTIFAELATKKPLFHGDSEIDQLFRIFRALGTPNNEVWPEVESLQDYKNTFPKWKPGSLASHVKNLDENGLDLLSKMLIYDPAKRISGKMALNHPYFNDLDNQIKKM
Chain of CDK1/CycB (P14635 whole entry partner): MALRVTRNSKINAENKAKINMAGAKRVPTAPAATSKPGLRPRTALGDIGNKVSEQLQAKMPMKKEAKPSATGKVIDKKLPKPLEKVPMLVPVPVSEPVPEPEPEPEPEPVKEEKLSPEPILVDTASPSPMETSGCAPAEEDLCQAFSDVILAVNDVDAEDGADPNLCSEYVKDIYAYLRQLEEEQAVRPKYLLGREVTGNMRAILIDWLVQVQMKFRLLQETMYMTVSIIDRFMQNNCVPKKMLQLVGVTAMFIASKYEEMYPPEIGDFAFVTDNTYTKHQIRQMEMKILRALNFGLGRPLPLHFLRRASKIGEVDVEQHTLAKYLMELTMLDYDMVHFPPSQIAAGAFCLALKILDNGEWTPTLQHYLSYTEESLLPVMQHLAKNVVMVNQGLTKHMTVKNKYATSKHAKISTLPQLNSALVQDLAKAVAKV
Chain of VEGF receptor tyrosine kinase-2 (VEGF-R2) (P35968 20-1356, species assumed): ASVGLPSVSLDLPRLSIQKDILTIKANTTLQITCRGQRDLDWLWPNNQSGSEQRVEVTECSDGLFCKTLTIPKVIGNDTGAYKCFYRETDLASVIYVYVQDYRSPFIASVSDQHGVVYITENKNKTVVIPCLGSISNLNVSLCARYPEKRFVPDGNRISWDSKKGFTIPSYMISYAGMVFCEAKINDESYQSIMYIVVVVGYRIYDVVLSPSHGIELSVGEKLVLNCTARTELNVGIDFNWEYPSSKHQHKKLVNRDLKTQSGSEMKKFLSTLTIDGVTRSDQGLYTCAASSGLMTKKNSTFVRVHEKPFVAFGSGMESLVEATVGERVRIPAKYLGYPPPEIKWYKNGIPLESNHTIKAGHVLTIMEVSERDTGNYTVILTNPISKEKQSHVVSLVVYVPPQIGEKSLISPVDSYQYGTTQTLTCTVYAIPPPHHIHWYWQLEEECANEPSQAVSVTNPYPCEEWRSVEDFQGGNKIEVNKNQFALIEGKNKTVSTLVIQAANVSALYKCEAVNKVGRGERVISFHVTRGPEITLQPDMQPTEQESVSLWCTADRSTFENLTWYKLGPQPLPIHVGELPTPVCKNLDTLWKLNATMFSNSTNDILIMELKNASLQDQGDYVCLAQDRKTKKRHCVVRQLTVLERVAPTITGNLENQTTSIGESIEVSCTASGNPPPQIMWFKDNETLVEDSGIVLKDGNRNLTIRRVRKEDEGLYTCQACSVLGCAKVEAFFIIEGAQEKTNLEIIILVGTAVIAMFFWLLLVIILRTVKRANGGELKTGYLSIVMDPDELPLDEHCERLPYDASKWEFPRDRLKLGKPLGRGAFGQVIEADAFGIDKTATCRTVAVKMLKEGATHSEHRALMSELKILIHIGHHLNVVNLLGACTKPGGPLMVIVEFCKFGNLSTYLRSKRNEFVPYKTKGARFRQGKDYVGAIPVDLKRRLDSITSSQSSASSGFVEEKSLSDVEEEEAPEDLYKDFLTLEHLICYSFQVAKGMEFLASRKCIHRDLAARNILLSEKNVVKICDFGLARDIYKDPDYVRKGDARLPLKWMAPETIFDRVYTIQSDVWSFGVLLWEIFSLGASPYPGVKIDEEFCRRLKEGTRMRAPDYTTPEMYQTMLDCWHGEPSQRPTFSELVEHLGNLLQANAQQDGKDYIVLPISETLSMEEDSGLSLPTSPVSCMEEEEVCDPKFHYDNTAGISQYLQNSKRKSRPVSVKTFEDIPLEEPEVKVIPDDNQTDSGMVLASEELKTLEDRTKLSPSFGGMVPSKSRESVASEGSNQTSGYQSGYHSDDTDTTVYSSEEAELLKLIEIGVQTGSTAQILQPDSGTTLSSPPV
Chain of CDK4/CycD1 (P11802 whole entry, the tested form may be a part): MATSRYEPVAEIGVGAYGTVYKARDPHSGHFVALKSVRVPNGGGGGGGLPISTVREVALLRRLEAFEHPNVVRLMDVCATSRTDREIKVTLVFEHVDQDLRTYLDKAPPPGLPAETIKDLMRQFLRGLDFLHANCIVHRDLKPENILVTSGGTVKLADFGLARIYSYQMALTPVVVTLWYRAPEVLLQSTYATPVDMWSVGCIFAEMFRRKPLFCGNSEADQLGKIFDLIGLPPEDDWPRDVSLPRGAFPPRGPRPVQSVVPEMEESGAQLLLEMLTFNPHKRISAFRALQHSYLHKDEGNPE
Chain of CDK4/CycD1 (P24385 whole entry partner, the tested form may be a part): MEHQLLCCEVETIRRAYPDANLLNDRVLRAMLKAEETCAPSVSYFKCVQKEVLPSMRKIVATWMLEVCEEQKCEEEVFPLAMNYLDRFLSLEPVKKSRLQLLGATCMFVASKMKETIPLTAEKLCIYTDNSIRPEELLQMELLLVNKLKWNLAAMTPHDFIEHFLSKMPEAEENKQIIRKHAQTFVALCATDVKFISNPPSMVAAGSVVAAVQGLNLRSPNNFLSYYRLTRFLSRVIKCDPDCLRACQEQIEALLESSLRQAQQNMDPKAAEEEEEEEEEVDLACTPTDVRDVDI

Row | Structure (SMILES) | IC50 (CDK1/CycB) | IC50 (CDK2/CycE) | IC50 ([1]; 96 h, MCF7, 4 days) | further results
1 | C[C@@H](O)[C@@H](C)Oc1nc(Nc2ccc(S(=O)(=O)C3CCCC3)cc2)ncc1C(F)(F)F [Example 7, (2R,3R)-3-[2-(4-Cyclopentanesulphonylphenylamino)-5-triluoromethylpyrimidin-4-yloxy]butan-2-ol] | 23 nM | 21 nM |  | 
2 | CS(=O)(=O)c1ccc(Nc2ncc(C(F)(F)F)c(OCCC(F)(F)F)n2)cc1 [Example 14, (4-Methanesulphonylphenyl)[5-trifluoromethyl-4-(3,3,3-trifluoropropoxy)pyrimidin-2-yl]amine] | 740 nM | 94 nM |  | IC50 ([1]; MCF7, 96 h): 2200 nM
3 | CS(=O)(=O)c1ccc(Nc2ncc(C(F)(F)F)c(OC3CCCCC3)n2)cc1 [Example 16, (4-Cyclohexyloxy-5-trifluoromethylpyrimidin-2-yl)(4-methanesulphonylphenyl)amine] | > 1000 nM | 480 nM | 1400 nM | 
4 | C#CCS(=O)(=O)c1ccc(Nc2ncc(C(F)(F)F)c(O[C@H](C)C(C)(C)O)n2)cc1 [Example 10, (R)-2-Methyl-3-{2-[4-(prop-2-yne-1-sulphonyl)phenylamino]-5-trifluoromethylpyrimidin-4-yloxy}butan-2-ol] | 82 nM | 43 nM |  | 
5 | C[C@@H](O)[C@@H](C)Nc1nc(Nc2ccc(S(C)(=O)=O)cc2)ncc1C(F)(F)F [C2, (2R,3R)-3-[2-(4-Methanesulphonylphenylamino)-5-trifluoromethylpyrimidin-4-ylamino]butan-2-ol, reference compound] | 4 nM | 4 nM | 43 nM | IC50 [2]: 34 nM; IC50 [3]: 92 nM; IC50 [4]: 75 nM; IC50 [5]: 76 nM; IC50 [6]: 32 nM; IC50 [7]: 89 nM; IC50 (CDK4/CycD1): 35 nM; efflux ratio at 90 min ([8]; Caco-2, read-out: ratio (b-a)/(a-b)): 1; Papp A→B at 90 min ([8]; Caco-2, 90 min, 37° C., read-out: Permeation coefficient, Papp apical-basolateral (a-b)): 18 ×10⁻⁶ cm/s; Papp B→A at 90 min ([8]; Caco-2, 90 min, 37° C., read-out: Permeation coefficient, Papp basolateral-apical (b-a)): 17.8 ×10⁻⁶ cm/s
6 | C=CCOc1nc(Nc2ccc(S(C)(=O)=O)cc2)ncc1C(F)(F)F [Example 15, (4-Allyloxy-5-trifluoromethylpyrimidin-2-yl)(4-methane-sulphonylphenyl)amine] | 280 nM | 49 nM | 1500 nM | 
7 | C[C@@H](Oc1nc(Nc2ccc(S(=O)(=O)C3CC3)cc2)ncc1C(F)(F)F)C(C)(C)O [Example 4, (R)-3-[2-(4-Cyclopropanesulphonylphenylamino)-5-tri-fluoromethylpyrimidin-4-yloxy]-2-methylbutan-2-ol] | 36 nM | 21 nM | 105 nM | IC50 [2]: 226 nM; IC50 [4]: 194 nM; IC50 [5]: 205 nM; IC50 [6]: 142 nM; IC50 [7]: 287 nM
8 | C=CCS(=O)(=O)c1ccc(Nc2ncc(C(F)(F)F)c(O[C@H](C)C(C)(C)O)n2)cc1 [Example 8, (R)-2-Methyl-3-{2-[4-(prop-2-ene-1-sulphonyl)phenylamino]-5-trifluoromethylpyrimidin-4-yl-oxy}butan-2-ol] | 43 nM | 11 nM |  | 
9 | C[C@@H](O)[C@@H](C)Oc1nc(Nc2ccc(S(=O)(=O)C(F)F)cc2)ncc1C(F)(F)F [Example 6, (2R,3R)-3-{2-[4-(Difluoromethanesulphonyl)phenylamino]-5-trifluoromethylpyrimidin-4-yloxy}butan-2-ol] | 24 nM | 12 nM |  | 
10 | COC[C@@H](C)Oc1nc(Nc2ccc(S(C)(=O)=O)cc2)ncc1C(F)(F)F [Example 12, (4-Methanesulphonylphenyl) [4-((R)-2-methoxy-1-methyl-ethoxy)-5-trifluoromethylpyrimidin-2-yl]amine] | 51 nM | 12 nM | 191 nM | 
11 | C[C@@H](O)[C@@H](C)Oc1nc(Nc2ccc(S(=O)(=O)CCO)cc2)ncc1C(F)(F)F [Example 11, (2R,3R)-3-{2-[4-(2-Hydroxyethanesulphonyl)phenylamino]-5-trifluoromethylpyrimidin-4-yloxy}butan-2-ol] | 3 nM | 3 nM |  | 
12 | CC(C)S(=O)(=O)c1ccc(Nc2ncc(C(F)(F)F)c(O[C@H](C)[C@@H](C)O)n2)cc1 [Example 9, (2R,3R)-3-{2-[4-(Propane-2-sulphonyl)phenylamino]-5-trifluoromethylpyrimidin-4-yloxy}butan-2-ol] | 12 nM | 6 nM |  | 
13 | C[C@@H](Nc1nc(Nc2ccc(S(C)(=O)=O)cc2)ncc1C(F)(F)F)C(C)(C)O [C3, (R)-3-[2-(4-Methanesulphonylphenylamino) 5-trifluoro-methylpyrimidin-4-ylamino]-2-methylbutan-2-ol, reference compound] | 9 nM | 8 nM | 61 nM | IC50 [2]: 93 nM; IC50 [3]: 190 nM; IC50 [4]: 60 nM; IC50 [5]: 133 nM; IC50 [6]: 37 nM; IC50 [7]: 106 nM; IC50 (CDK4/CycD1): 24 nM
14 | C#CCOc1nc(Nc2ccc(S(C)(=O)=O)cc2)ncc1C(F)(F)F [Example 13, (4-Methanesulphonylphenyl)(4-prop-2-ynyloxy-5-trifluoromethylpyrimidin-2-yl)amine] | 130 nM | 25 nM |  | IC50 ([1]; MCF7, 96 h): 740 nM
15 | C[C@@H](O)[C@@H](C)Oc1nc(Nc2ccc(S(=O)(=O)c3ccccc3)cc2)ncc1C(F)(F)F [Example 5, (2R,3R)-3-[2-(4-Benzenesulphonylphenylamino)-5-tri-fluoromethylpyrimidin-4-yloxy]butan-2-ol] | 41 nM | 36 nM |  | 
